Laboratory results published in patent publication US20260217767A1, “NOVEL A4B7 THIOETHER PEPTIDE DIMER ANTAGONISTS” (Protagonist Therapeutics, Inc., priority 2014, published 2026).
*1 amine or outer side, *2 acyl side, *3 side chain or, on linkers, in order; H or OH if unused. Where a SMILES comes first, the peptide text is derived from it. Bridges are numbered along the chain shown (N, C = ends). Roman numbers before positions name the chains, in order. [ ]: non-standard residue; d: D form. Phe(4-CF3) = N[C@@H](Cc1ccc(C(F)(F)F)cc1)C(=O)O; Bip = N[C@@H](Cc1ccc(-c2ccccc2)cc1)C(=O)O; 1Nal = N[C@@H](Cc1cccc2ccccc12)C(=O)O; Diglycolyl = O=C(COCC(=O)[*:2])[*:1]; NMeR = CN[C@@H](CCCNC(=N)N)C(=O)O; Tic = O=C(O)[C@@H]1Cc2ccccc2CN1; X1 = O=C(c1ccccc1C[*:2])[*:1]; Pen = CC(C)(S)[C@H](N)C(=O)O

biological target: T1, rh integrin α4β7 (Homo sapiens, UniProt P13612+P26010); experiment: α4β7-MAdCAM Competition ELISA; format: binding; conditions: thioether peptide dimers, Table 7; read-out: ELISA A4B7
T1 construct: purchased R&D Systems 5397-A30
T1 sequence (P13612 34-977 limits assumed): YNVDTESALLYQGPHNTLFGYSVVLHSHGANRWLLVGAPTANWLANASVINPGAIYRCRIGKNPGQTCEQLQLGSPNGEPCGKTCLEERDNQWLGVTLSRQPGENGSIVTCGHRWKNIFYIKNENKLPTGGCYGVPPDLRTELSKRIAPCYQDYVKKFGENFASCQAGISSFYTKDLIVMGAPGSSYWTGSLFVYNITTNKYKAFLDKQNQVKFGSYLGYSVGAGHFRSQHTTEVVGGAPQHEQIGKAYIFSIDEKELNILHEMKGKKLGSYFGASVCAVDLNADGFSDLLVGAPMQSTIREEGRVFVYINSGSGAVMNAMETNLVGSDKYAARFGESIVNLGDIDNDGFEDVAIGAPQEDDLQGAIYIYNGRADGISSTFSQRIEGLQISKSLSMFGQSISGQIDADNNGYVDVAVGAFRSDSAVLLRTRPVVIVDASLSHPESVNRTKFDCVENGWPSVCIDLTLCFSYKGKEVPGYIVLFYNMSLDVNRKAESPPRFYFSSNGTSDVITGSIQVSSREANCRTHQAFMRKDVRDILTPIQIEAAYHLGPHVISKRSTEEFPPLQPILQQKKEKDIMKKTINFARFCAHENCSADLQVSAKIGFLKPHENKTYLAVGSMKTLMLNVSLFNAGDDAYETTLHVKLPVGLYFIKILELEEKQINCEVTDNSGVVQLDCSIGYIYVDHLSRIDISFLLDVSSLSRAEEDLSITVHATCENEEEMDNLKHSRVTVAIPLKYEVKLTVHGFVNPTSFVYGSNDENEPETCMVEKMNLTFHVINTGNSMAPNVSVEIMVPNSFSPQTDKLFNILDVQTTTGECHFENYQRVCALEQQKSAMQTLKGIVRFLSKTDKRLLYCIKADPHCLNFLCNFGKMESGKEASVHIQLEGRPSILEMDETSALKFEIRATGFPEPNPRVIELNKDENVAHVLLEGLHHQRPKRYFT
T1 sequence (P26010 20-723 limits assumed): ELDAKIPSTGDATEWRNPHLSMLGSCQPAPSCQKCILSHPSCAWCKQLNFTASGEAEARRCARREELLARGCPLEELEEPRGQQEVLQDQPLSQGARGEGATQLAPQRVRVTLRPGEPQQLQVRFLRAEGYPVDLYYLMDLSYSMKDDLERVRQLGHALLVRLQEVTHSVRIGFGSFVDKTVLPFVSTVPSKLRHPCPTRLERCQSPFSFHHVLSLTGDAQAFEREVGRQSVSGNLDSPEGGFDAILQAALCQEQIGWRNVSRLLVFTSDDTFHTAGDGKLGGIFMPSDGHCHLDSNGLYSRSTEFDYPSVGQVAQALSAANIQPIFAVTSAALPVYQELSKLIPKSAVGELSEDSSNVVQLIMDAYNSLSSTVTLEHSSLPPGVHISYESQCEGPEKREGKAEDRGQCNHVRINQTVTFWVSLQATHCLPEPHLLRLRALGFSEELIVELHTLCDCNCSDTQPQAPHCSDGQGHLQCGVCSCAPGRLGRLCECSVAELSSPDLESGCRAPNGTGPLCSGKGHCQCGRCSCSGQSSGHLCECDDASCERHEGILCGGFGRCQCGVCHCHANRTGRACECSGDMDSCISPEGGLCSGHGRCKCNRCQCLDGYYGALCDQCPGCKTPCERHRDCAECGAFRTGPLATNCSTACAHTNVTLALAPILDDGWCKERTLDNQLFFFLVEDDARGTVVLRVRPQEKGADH
In short: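 Recombinant human α4β7 captured on nickel-coated plates, then incubated 1 h at room temperature with serially diluted peptides (final top 10 μM) and 10 nM final MAdCAM-1 in Tris pH 7.6 buffer with 1 mM MnCl2 or MgCl2. Bound MAdCAM-1 detected with anti-human IgG1-HRP and TMB, absorbance at 450 nm.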

Structure (SMILES)	IC50 [nM]
CC(C)C[C@@H]1NC(=O)[C@H]([C@@H](C)O)NC(=O)[C@H](CC(=O)O)NC(=O)[C@H](CO)NC(=O)[C@H](CCCNC(=N)N)N(C)C(=O)c2ccccc2CSC(C)(C)[C@@H](C(=O)N[C@@H](Cc2cccc3ccccc23)C(=O)N[C@H](CCC(=O)O)C(=O)N[C@H](CCCCNC(=O)COCC(=O)NCCCC[C@@H](NC(=O)[C@@H](CCC(=O)O)NC(=O)[C@H](Cc2cccc3ccccc23)NC(=O)[C@H]2NC(=O)[C@H](CC(C)C)NC(=O)[C@H]([C@@H](C)O)NC(=O)[C@H](CC(=O)O)NC(=O)[C@H](CO)NC(=O)[C@H](CCCNC(=N)N)N(C)C(=O)c3ccccc3CSC2(C)C)C(N)=O)C(N)=O)NC1=O [compound 158] (I: [NMeR]SDTL[Pen][1Nal][dE][dK]-NH2 / II: [NMeR]SDTL[Pen][1Nal][dE][dK]-NH2; linker I:9-II:9 via Diglycolyl; linker I:N-I:6, II:N-II:6 via X1)	< 25
CC(C)C[C@@H]1NC(=O)[C@H]([C@@H](C)O)NC(=O)[C@H](CC(=O)O)NC(=O)[C@H](CO)NC(=O)[C@H](CCCNC(=N)N)N(C)C(=O)c2ccccc2CSC(C)(C)[C@@H](C(=O)N[C@@H](Cc2ccc(C(F)(F)F)cc2)C(=O)N[C@@H](CCC(=O)O)C(=O)N[C@H](CCCCNC(=O)COCC(=O)NCCCC[C@@H](NC(=O)[C@H](CCC(=O)O)NC(=O)[C@H](Cc2ccc(C(F)(F)F)cc2)NC(=O)[C@H]2NC(=O)[C@H](CC(C)C)NC(=O)[C@H]([C@@H](C)O)NC(=O)[C@H](CC(=O)O)NC(=O)[C@H](CO)NC(=O)[C@H](CCCNC(=N)N)N(C)C(=O)c3ccccc3CSC2(C)C)C(N)=O)C(N)=O)NC1=O [compound 166] (I: [NMeR]SDTL[Pen][Phe(4-CF3)]E[dK]-NH2 / II: [NMeR]SDTL[Pen][Phe(4-CF3)]E[dK]-NH2; linker I:9-II:9 via Diglycolyl; linker I:N-I:6, II:N-II:6 via X1)	< 25
CC(C)C[C@@H]1NC(=O)[C@H]([C@@H](C)O)NC(=O)[C@H](CC(=O)O)NC(=O)[C@H](CO)NC(=O)[C@H](CCCNC(=N)N)N(C)C(=O)c2ccccc2CSC(C)(C)[C@@H](C(=O)N[C@@H](Cc2cccc3ccccc23)C(=O)N[C@@H](CCC(=O)O)C(=O)N[C@H](CCCCNC(=O)COCC(=O)NCCCC[C@@H](NC(=O)[C@H](CCC(=O)O)NC(=O)[C@H](Cc2cccc3ccccc23)NC(=O)[C@H]2NC(=O)[C@H](CC(C)C)NC(=O)[C@H]([C@@H](C)O)NC(=O)[C@H](CC(=O)O)NC(=O)[C@H](CO)NC(=O)[C@H](CCCNC(=N)N)N(C)C(=O)c3ccccc3CSC2(C)C)C(N)=O)C(N)=O)NC1=O [compound 167] (I: [NMeR]SDTL[Pen][1Nal]E[dK]-NH2 / II: [NMeR]SDTL[Pen][1Nal]E[dK]-NH2; linker I:9-II:9 via Diglycolyl; linker I:N-I:6, II:N-II:6 via X1)	< 25
CC(C)C[C@@H]1NC(=O)[C@H]([C@@H](C)O)NC(=O)[C@H](CC(=O)O)NC(=O)[C@H](CO)NC(=O)[C@H](CCCNC(=N)N)N(C)C(=O)c2ccccc2CSC(C)(C)[C@@H](C(=O)N[C@@H](Cc2ccc(-c3ccccc3)cc2)C(=O)N[C@H](CCC(=O)O)C(=O)N[C@H](CCCCN)C(N)=O)NC1=O [compound 178] (HELM PEPTIDE1{[meR].S.D.T.L.[Pen].[O=C([C@H](Cc1ccc(-c2ccccc2)cc1)N[*:1])[*:2]].[dE].[dK].[am]}|CHEM1{[O=C(c1ccccc1C[*:2])[*:1]]}$PEPTIDE1,CHEM1,1:R1-1:R1|PEPTIDE1,CHEM1,6:R3-1:R2$$$V2.0)	< 25
CC(C)C[C@@H]1NC(=O)[C@H]([C@@H](C)O)NC(=O)[C@H](CC(=O)O)NC(=O)[C@H](CO)NC(=O)[C@H](CCCNC(=N)N)N(C)C(=O)c2ccccc2CSC[C@@H](C(=O)N2Cc3ccccc3C[C@H]2C(=O)N[C@H](CCC(=O)O)C(=O)N[C@H](CCCCNC(=O)COCC(=O)NCCCC[C@@H](NC(=O)[C@@H](CCC(=O)O)NC(=O)[C@@H]2Cc3ccccc3CN2C(=O)[C@@H]2CSCc3ccccc3C(=O)N(C)[C@@H](CCCNC(=N)N)C(=O)N[C@@H](CO)C(=O)N[C@@H](CC(=O)O)C(=O)N[C@@H]([C@@H](C)O)C(=O)N[C@@H](CC(C)C)C(=O)N2)C(N)=O)C(N)=O)NC1=O [compound 184] (I: [NMeR]SDTLC[Tic][dE][dK]-NH2 / II: [NMeR]SDTLC[Tic][dE][dK]-NH2; linker I:9-II:9 via Diglycolyl; linker I:N-I:6, II:N-II:6 via X1)	< 25
CC(C)C[C@@H]1NC(=O)[C@H]([C@@H](C)O)NC(=O)[C@H](CC(=O)O)NC(=O)[C@H](CO)NC(=O)[C@H](CCCNC(=N)N)N(C)C(=O)c2ccccc2CSC(C)(C)[C@@H](C(=O)N[C@@H](Cc2ccccc2)C(=O)N[C@H](CCC(=O)O)C(=O)N[C@H](CCCCNC(=O)COCC(=O)NCCCC[C@@H](NC(=O)[C@@H](CCC(=O)O)NC(=O)[C@H](Cc2ccccc2)NC(=O)[C@H]2NC(=O)[C@H](CC(C)C)NC(=O)[C@H]([C@@H](C)O)NC(=O)[C@H](CC(=O)O)NC(=O)[C@H](CO)NC(=O)[C@H](CCCNC(=N)N)N(C)C(=O)c3ccccc3CSC2(C)C)C(=O)O)C(=O)O)NC1=O [compound 204] (I: [NMeR]SDTL[Pen]F[dE][dK]-OH / II: [NMeR]SDTL[Pen]F[dE][dK]-OH; linker I:9-II:9 via Diglycolyl; linker I:N-I:6, II:N-II:6 via X1)	< 25
CC(C)C[C@@H]1NC(=O)[C@H]([C@@H](C)O)NC(=O)[C@H](CC(=O)O)NC(=O)[C@H](CO)NC(=O)[C@H](CCCNC(=N)N)N(C)C(=O)c2ccccc2CSC[C@@H](C(=O)N2Cc3ccccc3C[C@H]2C(=O)N[C@H](CCC(=O)O)C(=O)N[C@H](CCCCNC(=O)COCC(=O)NCCCC[C@@H](NC(=O)[C@@H](CCC(=O)O)NC(=O)[C@@H]2Cc3ccccc3CN2C(=O)[C@@H]2CSCc3ccccc3C(=O)N(C)[C@@H](CCCNC(=N)N)C(=O)N[C@@H](CO)C(=O)N[C@@H](CC(=O)O)C(=O)N[C@@H]([C@@H](C)O)C(=O)N[C@@H](CC(C)C)C(=O)N2)C(=O)O)C(=O)O)NC1=O [compound 207] (I: [NMeR]SDTLC[Tic][dE][dK]-OH / II: [NMeR]SDTLC[Tic][dE][dK]-OH; linker I:9-II:9 via Diglycolyl; linker I:N-I:6, II:N-II:6 via X1)	< 25
CC(C)C[C@@H]1NC(=O)[C@H]([C@@H](C)O)NC(=O)[C@H](CC(=O)O)NC(=O)[C@H](CO)NC(=O)[C@H](CCCNC(=N)N)N(C)C(=O)c2ccccc2CSC(C)(C)[C@@H](C(=O)N[C@@H](Cc2ccc(-c3ccccc3)cc2)C(=O)N[C@H](CCC(=O)O)C(=O)N[C@H](CCCCNC(=O)COCC(=O)NCCCC[C@@H](NC(=O)[C@@H](CCC(=O)O)NC(=O)[C@H](Cc2ccc(-c3ccccc3)cc2)NC(=O)[C@H]2NC(=O)[C@H](CC(C)C)NC(=O)[C@H]([C@@H](C)O)NC(=O)[C@H](CC(=O)O)NC(=O)[C@H](CO)NC(=O)[C@H](CCCNC(=N)N)N(C)C(=O)c3ccccc3CSC2(C)C)C(=O)O)C(=O)O)NC1=O [compound 208] (I: [NMeR]SDTL[Pen][Bip][dE][dK]-OH / II: [NMeR]SDTL[Pen][Bip][dE][dK]-OH; linker I:9-II:9 via Diglycolyl; linker I:N-I:6, II:N-II:6 via X1)	< 25
